Molecules are shown by their SMILES. Like-named read-outs stand apart in the source and are kept apart here.

This assay concerns HIV-1 (NL4-3 strain). Nature of the assay: Assay for inhibition of HIV replication (MT4-gag-GFP reporter cell line, kinetic assay). In kind it is cell-based. How it is done: This assay is a kinetic assay that employs a reporter cell line (MT4-gag-GFP) to quantify the number of new cells infected in each round of replication.
MT4-GFP cells (250,000 cells/ml) were bulk-infected with HIV-1 (NL4-3 strain) at low multiplicity of infection (MOI) in RPMI+10% FBS for 24 hours. Cells were then washed once in RPMI+10% FBS and resuspended in RPMI+0% or 10% or 100% normal human serum (NHS). Test compounds were serial-diluted in DMSO on ECHO. The infected MT4-GFP cells were added to a 384-well poly-D-lysine coated black plate with clear bottom in which the diluted test compounds were placed. The cells were seeded at 8,000 cells per well and the final DMSO concentration was 0.4%. The infected cells (Green GFP cells) were quantified at both 24 and 48 hours post incubation using Acumen eX3. Viral reproductive ratio (R0) was determined using the number of infected cells at 48 hours divided by the number of infected cells at 24 hours. Percent viral growth inhibition was calculated by [1−(R−Rtripledrug)/(RDMSO−Rtripledrug)]*100. Compound potency IP or IC50 was determined by a 4-parameter dose response curve analysis.

Setting [1] is: Human immunodeficiency virus 1, NL43, Table A, infected MT4-GFP cells, RPMI + 0% normal human serum, IP from 4-parameter dose response curve, read-out: Wild Type Cell Assay IP (0% NHS).
[2] abbreviates: Human immunodeficiency virus 1, NL43, Table A, infected MT4-GFP cells, RPMI + 10% normal human serum, read-out: Wild Type Cell Assay IP (10% NHS).
Setting [3] is: Table A, infected MT4-GFP cells, RPMI + 10% normal human serum, read-out: Wild Type Cell Assay IP (10% NHS).
Where [4] appears, read: Table B (selected enantiomeric compounds), 0% normal human serum, read-out: Wild Type Cell Assay IP (0% NHS).
Setting [5] is: Table B (selected enantiomeric compounds), 100% normal human serum, read-out: Wild Type Cell Assay IP (100% NHS).
[6] abbreviates: Human immunodeficiency virus 1, NL43, Table B (selected enantiomeric compounds), 0% normal human serum, read-out: Wild Type Cell Assay IP (0% NHS).

As to `COCCN1C(=O)c2c(O)c(=O)c(-c3nnc(Cc4ccc(F)cc4F)s3)cn2C2COC[C@@H]21` (mixture of isomers) [Compound 8], the IC50 is, setting by setting: under setting [1], 0.006 µM; under setting [2], 0.013 µM.
The corresponding values for `CCN1C(=O)c2c(O)c(=O)c(-c3nnc(Cc4ccc(F)cc4)s3)cn2C2COC[C@@H]21` (mixture of isomers) [Compound 7] are 0.036 µM and 0.074 µM.
Turning to `CCN1C(=O)c2c(O)c(=O)c(C(=O)NCc3ccc(F)cc3F)cn2C2COC[C@@H]21` (single isomer, unassigned) [Compound 10, cis-N-(2,4-difluorobenzyl)-4-ethyl-6-hydroxy-5,7-dioxo-3,3a,4,5,7,10a-hexahydro-1H-furo[3,4-e]pyrido[1,2-a]pyrazine-8-carboxamide], the IC50 reads like this: under setting [1], 0.004 µM; under setting [3], 0.008 µM; under setting [4], 0.08 µM; under setting [5], 0.071 µM.
Consider `CCN1C(=O)c2c(O)c(=O)c(-c3nnc(Cc4ccc(F)cc4F)s3)cn2C2COC[C@@H]21` (single isomer, unassigned) [Compound 5, cis-8-(5-(2,4-difluorobenzyl)-1,3,4-thiadiazol-2-yl)-4-ethyl-6-hydroxy-3a,4-dihydro-1H-furo[3,4-e]pyrido[1,2-a]pyrazine-5,7(3H,10aH)-dione], for which the IC50 under setting [1] turned out to be 0.009 µM, the IC50 under setting [3] was 0.561 µM and the IC50 under setting [5] is 5.7 µM.
Regarding `CCN1C(=O)c2c(O)c(=O)c(-c3nnc(Cc4ccc(F)cc4F)s3)cn2[C@@H]2COC[C@H]21` (relative stereo) [Compound 3, trans-8-(5-(2,4-difluorobenzyl)-1,3,4-thiadiazol-2-yl)-4-ethyl-6-hydroxy-3a,4-dihydro-1H-furo[3,4-e]pyrido[1,2-a]pyrazine-5,7(3H,10aH)-dione], the IC50 under setting [2] stood at 0.058 µM.
Consider `CCCN1C(=O)c2c(O)c(=O)c(-c3nnc(Cc4ccc(F)cc4)s3)cn2C2COC[C@@H]21` (mixture of isomers) [Compound 9], for which the IC50 is, setting by setting: under setting [1], 0.01 µM; under setting [2], 0.032 µM.
Consider `CCN1C(=O)c2c(O)c(=O)c(-c3cnn(Cc4ccc(F)cc4F)c3)cn2[C@@H]2COC[C@@H]21` (relative stereo) [Compound 14, cis-8-(1-(2,4-difluorobenzyl)-1H-pyrazol-4-yl)-4-ethyl-6-hydroxy-3a,4-dihydro-1H-furo[3,4-e]pyrido[1,2-a]pyrazine-5,7(3H,10aH)-dione], for which the IC50 was 0.051 µM under setting [1] and 0.252 µM under setting [2].
For `CC(C)N1C(=O)c2c(O)c(=O)c(C(=O)NCc3ccc(F)cc3F)cn2C2COC[C@@H]21` (mixture of isomers) [Compound 12], in that order: 0.003 µM and 0.062 µM.
On to `CCN1C(=O)c2c(O)c(=O)c(-c3cn(Cc4ccc(F)cc4F)nn3)cn2[C@@H]2COC[C@@H]21` (single isomer, unassigned) [Compound 15, cis-8-(1-(2,4-Difluorobenzyl)-1H-1,2,3-triazol-4-yl)-4-ethyl-6-hydroxy-3a,4-dihydro-1H-furo[3,4-e]pyrido[1,2-a]pyrazine-5,7(3H,10aH)-dione], for which the IC50 under setting [1] was determined as 0.08 µM.
For `CCN1C(=O)c2c(O)c(=O)c(-c3cn(Cc4ccc(F)cc4F)nn3)cn2C2COC[C@@H]21` (single isomer, unassigned) [Compound 16], the IC50 by setting is: under setting [1], 0.038 µM; under setting [6], 0.038 µM; (Human immunodeficiency virus 1, NL43, Table B (selected enantiomeric compounds), 100% normal human serum, read-out: Wild Type Cell Assay IP (100% NHS)) 2.7 µM.
With `CCN1C(=O)c2c(O)c(=O)c(C(=O)NCc3ccc(F)cc3F)cn2C2COC[C@@H]21` (single isomer, unassigned) [Compound 11, cis-N-(2,4-difluorobenzyl)-4-ethyl-6-hydroxy-5,7-dioxo-3,3a,4,5,7,10a-hexahydro-1H-furo[3,4-e]pyrido[1,2-a]pyrazine-8-carboxamide], the IC50 is 0.006 µM (Table A, infected MT4-GFP cells, RPMI + 0% normal human serum, IP from 4-parameter dose response curve, read-out: Wild Type Cell Assay IP (0% NHS)); 0.148 µM under setting [3]; 0.038 µM under setting [4]; 2.8 µM under setting [5].
With `O=C1N[C@@H]2COC[C@H]2n2cc(-c3nnc(Cc4ccc(F)cc4F)s3)c(=O)c(O)c21` (relative stereo) [Compound 2, trans-8-(5-(2,4-difluorobenzyl)-1,3,4-thiadiazol-2-yl)-6-hydroxy-3a,4-dihydro-1H-furo[3,4-e]pyrido[1,2-a]pyrazine-5,7(3H,10aH)-dione], under setting [2], the IC50 worked out at 0.385 µM.
Take `CCC(c1nnc(-c2cn3c(c(O)c2=O)C(=O)N(CC)[C@H]2COCC23)s1)c1ccc(F)cc1F` (mixture of isomers) [Compound 6]: the IC50 reads like this: under setting [1], 0.031 µM; under setting [2], 0.067 µM.
With `CCN1C(=O)c2c(O)c(=O)c(-c3nnc(Cc4ccc(F)cc4F)s3)cn2C2COC[C@@H]21` (single isomer, unassigned) [Compound 4, cis-8-(5-(2,4-difluorobenzyl)-1,3,4-thiadiazol-2-yl)-4-ethyl-6-hydroxy-3a,4-dihydro-1H-furo[3,4-e]pyrido[1,2-a]pyrazine-5,7(3H,10aH)-dione], the IC50 runs as follows: under setting [6], 0.008 µM; under setting [3], 0.017 µM; under setting [5], 0.19 µM.
As to `CCN1C(=O)c2c(O)c(=O)c(C(=O)NCc3ccc(F)cc3F)cn2C2COC[C@H]21` (stereo partly shown) [Compound 13], the IC50 under setting [2] came out at 0.021 µM.
On the same count and under the same terms, as for `O=C1N[C@H]2COCC2n2cc(-c3nnc(Cc4ccc(F)cc4F)s3)c(=O)c(O)c21` (stereo in doubt) [Compound 1, cis-8-(5-(2,4-difluorobenzyl)-1,3,4-thiadiazol-2-yl)-6-hydroxy-3a,4-dihydro-1H-furo[3,4-e]pyrido[1,2-a]pyrazine-5,7(3H,10aH)-dione], the figure is 0.4 µM.

These data come from patent publication US9951079B2, “Fused tricyclic heterocyclic compounds as HIV integrase inhibitors” (MERCK SHARP & DOHME CORP., priority 2013, dated 2018).
